In ChEMBL document CHEMBL5729619, “Substituted pyrazolo[3,4-b]pyrazines as SHP2 phosphatase inhibitors” (2023):
pIC50: −log10 of the molar value.

Molecular target: T1, Tyrosine-protein phosphatase non-receptor type 11 (Homo sapiens, UniProt Q06124)
T1 sequence (Q06124 whole entry): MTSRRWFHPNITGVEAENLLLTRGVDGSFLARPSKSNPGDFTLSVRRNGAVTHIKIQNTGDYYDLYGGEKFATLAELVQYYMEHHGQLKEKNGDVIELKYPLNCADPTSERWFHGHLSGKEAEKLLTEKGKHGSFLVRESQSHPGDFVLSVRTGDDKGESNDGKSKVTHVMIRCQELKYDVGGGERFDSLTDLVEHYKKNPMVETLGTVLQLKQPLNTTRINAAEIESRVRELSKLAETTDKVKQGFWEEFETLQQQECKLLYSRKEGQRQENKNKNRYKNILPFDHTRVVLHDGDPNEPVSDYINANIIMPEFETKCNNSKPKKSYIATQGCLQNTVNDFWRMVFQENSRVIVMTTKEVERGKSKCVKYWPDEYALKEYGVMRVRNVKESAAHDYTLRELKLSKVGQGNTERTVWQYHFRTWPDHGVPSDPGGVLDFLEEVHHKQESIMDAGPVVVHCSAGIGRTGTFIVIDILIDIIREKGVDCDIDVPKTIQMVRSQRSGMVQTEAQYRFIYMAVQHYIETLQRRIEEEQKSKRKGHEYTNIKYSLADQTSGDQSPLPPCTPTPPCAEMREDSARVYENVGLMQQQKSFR
Experiment: Inhibition Assay: SHP2 is allosterically activated through binding of bis-tyrosyl-phorphorylated peptides to its Src Homology 2 (SH2) domains. The latter activation step leads to the release of the auto-inhibitory interface of SHP2, which in turn renders the SHP2 protein tyrosine phosphatase (PTP) active and available for substrate recognition and reaction catalysis. The catalytic activity of SHP2 was monitored using the surrogate substrate DiFMUP in a prompt fluorescence assay format.The inhibition of SHP2 by compounds of the disclosure (concentrations varying from 0.003-100 μM) was monitored using an assay in which 0.25 nM of SHP2 was incubated with of 0.5 μM of peptide IRS1_pY1172(dPEG8)pY1222 (sequence: H2N-LN(pY)IDLDLV(dPEG8)LST(pY)ASINFQK-amide) After 30-60 minutes incubation at 25° C., the surrogate substrate DiFMUP (Invitrogen, cat #D6567, 100 μM final) was added to the reaction and the conversion of DiFMUP to 6,8-difluoro-7-hydroxyl-4-methyl coumarin (DiFMU) was monitored continuously for 10 minutes with excitation at 355 nm and emission at 460 nm using a microplate reader (PolarStar, BMG).

| SMILES | pIC50 |
| --- | --- |
| C[C@@H]1CCN(c2n[nH]c3nc(N4CCC5(CC4)CO[C@@H](C)[C@H]5N)cnc23)c2ccc(C(=O)NCc3cccnc3)nc21 | > 6.00 |
| C[C@@H]1OCC2(CCN(c3cnc4c(N5CCCc6nc(N7CCN(C)C(=O)C7)ccc65)n[nH]c4n3)CC2)[C@@H]1N | > 6.00 |
| CC1(CN)CCN(c2cnc3c(N4CCc5c(C6CC6)cccc54)n[nH]c3n2)CC1 | > 6.00 |

Results, then the molecule that gave them:

| pIC50 | SMILES |
| --- | --- |
| > 6.00 | C[C@@H]1OCC2(CCN(c3cnc4c(N5CC(=O)N(C)c6cnccc65)n[nH]c4n3)CC2)[C@@H]1N |
| > 6.00 | C[C@@H]1OCC2(CCN(c3cnc4c(N5CCNc6cnccc65)n[nH]c4n3)CC2)[C@@H]1N |
| > 6.00 | C[C@@H]1OCC2(CCN(c3cnc4c(N5CCCc6c5cccc6S(=O)(=O)N(C)C)n[nH]c4n3)CC2)[C@@H]1N |
